From patent US9428533B2, “Inhibitors of advanced glycation end products” (NephroGenex, Inc., priority 2006, dated 2016)
pIC50, pKd: −log10 of the molar value.

What was measured:
[1] = Redox metal ion binding affinity, visible spectroscopic titration (Cu2+); conditions: visible spectroscopy, physiological pH; read-out: Cu^2+ Kd
Text: (§1) The AGE inhibition by these types of compounds is believed to occur when the compounds interfere with the role of the required redox metal ions in the oxidative breakdown of the Amadori intermediates to advanced glycation end products (“glycoxidation”). […] These spectral titrations usually involve adding varying amounts of compound to a fixed amount of metal ion in a suitable buffer having low metal ion affinity under physiological pH conditions. In cases of extreme affinity, binding constants were estimated in a competitive assay mode.
(§2) Binding affinity is measured as the dissociation constants Kd (units of concentration). All measurements were done by visible spectroscopy by monitoring the spectrum of the complex formed by each compound near its wavelength maximum, which depends on the metal ion being studied.

[2] = Redox metal ion binding affinity, visible spectroscopic titration (Fe2+); conditions: visible spectroscopy, 480 nm (430 nm for pyridoxamine); read-out: Fe^2+ Kd
Text: as §1, §2

[3] = Redox metal ion binding affinity, visible spectroscopic titration (Fe3+); conditions: visible spectroscopy, 480 nm (430 nm for pyridoxamine); read-out: Fe^3+ Kd
Text: as §1, §2

[4] = tested on: RNase-Amadori; assay: Post-Amadori AGE/CML ELISA inhibition assay; type: biochemical; conditions: for pIC50: 20 hours at 37° C.
Text: Using a novel modification of the AGE Inhibition assay, we have determined the post-Amadori AGE inhibition potency for compounds of interest. The experiments were designed to determine the half-maximal inhibitory concentration of compounds (“IC50 values”) for inhibiting the conversion of Amadori intermediates to advanced glycation end products. The post Amadori AGE/CML ELISA assay has been developed to a 384 well format for rapidly testing potential inhibitors prepared from DMSO stocks. Assay signal to background ratios are high, at greater than 20:1. Results in this format for AGE inhibitors agree well with previous data, providing some measure of method validation, making the assay is robust and reliable. Compounds for testing were dissolved at 100 mM or their maximum concentration in 100% DMSO. […] A subset of compounds were not fully soluble in DMSO at concentrations as low as 10 mM. […] When necessary, the activity of compounds was subsequently confirmed in a more thorough repeat test against AGE formation from both RNase Amadori and BSA Amadori. Typically, from DMSO stocks, two stock plates were made. Each well contained 50 μL.
The stock plate #2 was then frozen at −20° C. during preparation. Later, stock plate #2 was removed from the freezer and allowed to thaw for 30 minutes. The compounds in the plate were then mixed repeatedly with a pipettor and diluted 5× into 0.01 N HCl in H2O.
Further dilutions were then carried out spanning two orders of magnitude of concentration. After the compounds were diluted, 10 ul of phosphate buffer was added to each well and mixed to neutralize the solution before protein addition. Next 15 μL of 0.333 mg/mL of RNase-Amadori in phosphate buffer was added from a stock of ribose-RNAse prepared at 10.7 mg/mL. These constitute the AGE reaction mixtures. All AGE reactions proceeded for 20 hours at 37° C. Reactions were then diluted 50 fold into coating buffer by 10× then 5× serial dilution. Coating proceeded at 37° C. for two hours. Final protein was 0.1 μg/well in 384 well plates (2 μg/mL). ELISA was carried out similarly to before using the primary antibody BST-3CK at 1:10000 dilution, and the secondary antibody labeled with DELPHIA Europium GAR at 1:4000 dilution.

[5] = tested on: HepG2 cells; assay: Cell based toxicity assay (MTT); conditions: fixed concentration 1 mM
Text: Hepatotoxicity is one of the major causes of drug failure in the clinic. HepG2 cells are human cells derived from a liver tumor, and express many of the proteins and detoxification pathways of normal hepatocytes, and so make a reasonable model for initial cellular toxicity testing of candidate compounds. The test is based on the active conversion of 3-[4,5-dimethylthiazol-2-yl]-2,5-dephenyltetrazolium bromide (MTT) by mitochondrial oxidation-reduction reactions into blue formazan crystals. Decreased crystal formation corresponds to decreased cell viability. Azide and chlorpromazine served as a positive controls
10×MTT stock solution (5 mg/ml MTT in 0.9% NaCl)
0.04 N HCl in isopropanol
Compound stocks: 100 mM in 100% DMSO
MTT working solution: diluting 10×MTT stock into culture medium.
Test article in cell culture medium; Final DMSO concentration on the cells varies with the compound concentration (Final concentration of solvents such as DMSO should be kept at or below 1%)
• 1. Aspirate culture medium from HepG2 cells. Replace culture medium with test article dissolved in culture medium. • 2. Incubate in 37° C., 5% CO2 incubator for 16-24 hours. • 3. Aspirate the medium from the cells; replace with an equal volume of 37° C. MTT working solution. • 4. Incubate for 3 hours. • 5. Replace MTT solution with an equal volume of acidified isopropanol. • 6. […] Read the absorbance of the solution at 570 nm. […]

[6] = tested on: male mice; conditions: mouse, in vivo, po
Experimental: A seven day repeat oral gavage study was carried out in male mice in order to detect any obvious signs of clinical toxicity upon administration of BST-605. For comparison, two groups were dosed with BST-4997 and BST-146 (acetyl ester of BST-4997 that is rapidly hydrolyzed to parent BST-4997). Dosing was done daily at 10, 30 and 100 mg/kg/day, and blood draws were taken at the end of study at 1, 2, 4 and 8 h post-dosing.

[7] = In vivo plasma concentration and metabolites (HPLC fluorescence, LC-MS/MS); conditions: for metabolites in plasma: mice plasma
Experimental: The plasma drawn from the mice in the above MTD study was examined by an HPLC fluorescence method for the presence of parent drug at different times as well as for the possible presence of metabolites. […] An HPLC fluorescence method was developed to assay for parent drugs and possible metabolites of each drug. The HPLC method was further adapted for LC-MS/MS study by changing from phosphoric acid to volatile 20 mM ammonium acetate.
Possible structures for the metabolites include the following: […]

[8] = tested on: streptozotocin (STZ)-diabetic rats; assay: Efficacy study in STZ rat model of diabetic neuropathy (nerve conduction velocity); type: in vivo
Experimental: The STZ rat model has been described previously in WO 2004/019889. Our aim was to ascertain whether BST-605 treatment could correct nerve dysfunction in streptozotocin (STZ)-diabetic rats. Animals were made diabetic for 6 weeks, following which they were treated (n=6) for 2 weeks with BST-605 given in the drinking water at concentrations adjusted to correspond to doses of 0.22, 0.67 and 2.0 mg/kg/day. They were compared to control non-diabetic rats (n=10).
Motor NCV was tested between the sciatic notch and knee for the nerve branch to tibialis anterior muscle, as described in Cameron et al., Q. J. Exp. Physiol. 74:917-926 (1989); and Cameron et al, Exp. Neurol. 92:757-761 (1986).
Saphenous sensory NCV was measured between the groin and ankle.

[9] = Drug exposure in plasma of STZ rats at sacrifice; type: in vivo; conditions: lowest two doses
Experimental: A determination of drug exposure was also made from plasma collected from STZ rats at sacrifice that were dosed at the lowest two doses. […] The detection of parent drugs and metabolites in the STZ rat, as in the mice plasma, confirms that sufficient exposure to the drug occurred in the studies so as to make the toxicity findings and in vivo efficacy reflective of drug administration.

[10] = tested on: STZ rats; assay: Tissue staining for carboxymethyllysine (CML) AGEs in nerve vasculature; type: in vivo; conditions: compared to diabetic controls
Text: This was done by quantitative measurements of tissue staining for carboxymethyllysine (CML) AGEs, using anti-CML antibodies.

[11] = STZ rats, 2 weeks in drinking water, 0.22, 0.67 and 2.0 mg/kg/day

## Cc1ncc(CN2CCN(C)CC2)c(-c2ncc[nH]2)c1O [BST-605]
[1]
  pKd: 6.89
[2]
  pKd: 3.14
[3]
  pKd: 3.28
[4]
  Potency Relative to BST-4997: 6
  potency over BST-4997: 6 fold
  potency over pyridoxamine: 50 fold
  pIC50: 4.00
[5]
  acute toxicity in HepG2 cell viability (MTT): no acute toxicity
[6]
  clinical toxicity in MTD study: no adverse clinical signs or gross examination findings
[7]
  metabolites in plasma: oxidized and/or undergone glucuronidation
[7]; mice, plasma 1, 2, 4 and 8 h post-dosing, 10, 30 and 100 mg/kg/day
  plasma concentration of parent drug versus dose: proportional to dose
[8]; STZ rat model
  diabetic complications in STZ rat model: ameliorates diabetic complications
[8]; [11]
  restoration of nerve conduction velocity in motor (sciatic nerve) neurons: efficacy at very low concentrations
  restoration of nerve conduction velocity in sensory (saphenous) neurons: efficacy at very low concentrations
[9]
  drug exposure in plasma: Drug exposure was observed and measured

## Cc1ncc(CO)c(CN)c1O [Pyridoxamine, pyridoxamine, reference compound]
[4]
  pIC50: 2.30

## Cc1ncc(CO)c(-c2ncc[nH]2)c1O [BST-4997, reference compound]
[1]
  pKd: 5.95
[2]
  pKd: 3.16
[3]
  pKd: 3.21
[4]
  Potency Relative to BST-4997: (1)
  pIC50: 3.22
[5]
  acute toxicity in HepG2 cell viability (MTT): some evidence of toxicity
[6]
  clinical toxicity in MTD study: significant toxicity at and above 30 mg/kg/day
[7]
  metabolites in plasma: oxidized and/or undergone glucuronidation
[10]
  AGE (CML) staining in the nerve vasculature: significant decrease in AGE staining
